Patent US6544521B2, “Immunoreactive peptide CTL epitopes of human cytomegalovirus pp150” (City of Hope, priority 2000, dated 2003)

Tested on: pp150-specific T cell clones
Experiment: Chromium release assay with peptide-sensitized EBVLCL and pp150-specific CTL clones (epitope mapping)
Format: cell-based, human
Details: persons having the indicated HLA allele; target cells sensitized with peptide at 50 μM

QTVTSTPVQGR (listed as Human cytomegalovirus) [SEQ ID NO: 2]
Number of Individuals Tested: 2/2

TTVYPPSSTAK (listed as Human cytomegalovirus) [SEQ ID NO: 1]
Number of Individuals Tested: 2/2
